Laboratory results published in patent US8518874B2, “HCV inhibitors” (Virobay, Inc., priority 2005, dated 2013).

Test system: HCV replication (HCV replicon RNA in Huh7/Clone A cells)
Experiment: HCV Replicon Assay
Assay type: cell-based
Settings: Hepatitis C virus, Huh-7, 48 h, read-out: IC50 for inhibition of HCV replication
Text: The HCV replicon assay is a cell-culture system that mimics in vivo HCV replication and provides a system to study HCV replication in vitro. It was created by transfecting cloned viral RNA derived from a consensus HCV genomic sequence into human Huh7 hepatoma cells that are semi-permissive for viral RNA production (Lohmann V., Korner F., Koch J.-O., Herian U., Theilmann L. and Bartenschlager R. (1999). Replication of subgenomic Hepatitis C virus RNAs in a hepatoma cell line. Science 285, 110-113 and Blight K. J., Kolykhalov A. A. and Rice C. M. (2000). Efficient initiation of HCV RNA Replication in cell culture. Science 290, […]). These transfected cell lines contain a subgenomic HCV RNA genome that includes (1) the HCV 5′NTR fused to 12 amino acids of the capsid coding region, (2) the neomycin phosphotransferase gene (Neo) as a selectable marker, (3) the internal ribosome entry site (IRES) from encephalomyocarditis virus (EMCV) that directs translation of HCV non-structural proteins (variously NS2 or NS3 to NS5B), and (4) the 3′ NTR. Replicon-containing cells autonomously and persistently replicate HCV RNA that can be measured quantitatively by real-time qPCR. Therefore, the replicon system facilitates quantitative assessment of anti-viral activity by monitoring changes in HCV RNA replication in a cell-based assay.
HCV replicon-containing cells (Huh7/Clone A) were routinely maintained in Clone A growth medium (DMEM medium [Invitrogen], supplemented with 10% Fetal Bovine Serum, 1% Non Essential Amino Acids and 1 g/L G418). Test compounds were dissolved in dimethyl sulfoxide (DMSO) to make 200× stock solutions for all doses prior to treatment.
For the HCV replicon assay, Huh7/Clone A cells were trypsinized from culture flasks, seeded in 1 ml of Clone A growth medium without G418 at 4×10^4 cells per well in 24-well plates and incubated at 37° C. in a humidified CO2 (5%) incubator overnight. Following overnight incubation, compound solutions were added into wells in the same volume (5 μl of 200× compound stock per well) to give a final DMSO concentration of 0.5%. Three wells on each plate supplemented with 5 μl of DMSO served as untreated controls. For IC50 determinations, compounds were tested at 7 serial dilutions in triplicates from the starting stock solutions. The plates were incubated at 37° C. for 48 hours. After incubation, cells were harvested, transferred to 96-well plates, and subjected to total RNA extraction using the RNA Isolation Kit (RNeasy 96, Qiagen) according to the protocol described by the manufacture's RNeasy 96 Handbook (Qiagen).
Total RNA eluted in 130 μl of RNase-free dH2O was quantitated by the RiboGreen Assay according to the supplier's protocol (Molecular Probe). Briefly, 5 μl of RNA samples were aliquoted in duplicate to a 96-well black microplate and a 96-well TaqMan Optical plate. RNA samples in the black microplate were mixed with 95 μl of diluted RiboGreen:reagent (1:250 dilution in TE buffer) and sample fluorescence was measured using a fluorescence microplate reader at standard fluorescein wavelengths (excitation ˜480 nm, emission ˜520 nm). Ribosomal RNA (Molecular Probe) was used as standard.
TaqMan quantitative PCR (RT-qPCR) was used to quantitate the amount of HCV replicon RNA in each sample. The RT-qPCR reactions were performed in 25 μl on an ABI PRISM 7900 HT Sequence Detection System (Applied Biosystems). The reaction mixture contained 5 μl of total RNA (10-100 ng), 1×TaqMan Buffer A (Applied Biosystems), 5.5 mM MgCl2, 1.2 mM dNTP mix, 0.625 U of AmpliTaq Gold (Applied Biosystems), 5 U of MMLV reverse transcriptase (Promega), 5 U of rRNasin (Promega), 300 nM each of the forward and reverse primers, and 100 nM TaqMan MGB probe. […]

| SMILES | IC50 |
| --- | --- |
| CC(C)(C)NC(=O)N[C@H](C(=O)N1CC(Oc2ccc(Cl)cn2)C[C@H]1C(=O)N[C@@H](CC1CCC1)C(=O)C(=O)NC1CC1)C(C)(C)C (stereo partly drawn) [Compound 3, 1-[2S-(3-tert-butylureido)-3,3-dimethylbutyryl]-4R-(5-chloropyridin-2-yloxy)-pyrrolidine-2S-carboxylic acid (1S-cyclobutylmethyl-2-cyclopropylcarbamoyl-2-oxoethyl)-amide] | < 50 µM |
| CCC[C@H](NC(=O)[C@@H]1C[C@@H](Oc2ccc(Cl)cn2)CN1C(=O)[C@@H](NC(=O)OC(C)(C)C)C(C)(C)C)C(=O)C(=O)NC1CC1 [Compound 6, {1S-[4R-(5-chloropyridin-2-yloxy)-2S-(1S-cyclopropylaminooxalylbutyl-carbamoyl)-pyrrolidine-1-carbonyl]-2,2-dimethyl-propyl}-carbamic acid tent-butyl ester] | < 50 µM |
| CC(C)(C)OC(=O)N[C@H](C(=O)N1C[C@H](Oc2ccc(Cl)cn2)C[C@H]1C(=O)N[C@@H](CC1CCC1)C(=O)C(=O)NC1CC1)C(C)(C)C [Compound 7, {1S-[4R-(5-chloropyridin-2-yloxy)-2S-(1S-cyclobutylmethyl-2-cyclopropylcarbamoyl-2-oxo-ethylcarbamoyl)-pyrrolidine-1-carbonyl]-2,2-dimethyl-propyl}-carbamic acid tert-butyl ester] | < 50 µM |

Same assay, conditions: Hepatitis C virus, Huh-7; HCV replicon-containing Huh7/Clone A cells, 48 hours incubation, replicon RNA by RT-qPCR normalized to total RNA; read-out: IC50 for inhibition of HCV replication

| SMILES | IC50 |
| --- | --- |
| CCC[C@H](NC(=O)[C@@H]1CC(Oc2nccc3cc(OCC)ccc23)CN1C(=O)[C@@H](NC(=O)NC(C)(C)C)C(C)(C)C)C(=O)C(=O)NC1CC1 (stereo partly drawn) [Compound 12, 1-[2S-(3-tert-Butyl-ureido)-3,3-dimethyl-butyryl]-4R-(6-ethoxy-isoquinolin-1-yloxy)-pyrrolidine-2S-carboxylic acid (1S-cyclopropylaminooxalyl-butyl)-amide] | < 10 µM |
| CCCC[C@H](NC(=O)[C@@H]1CC(Oc2nccc3cc(OC)ccc23)CN1C(=O)[C@@H](NC(=O)NC(C)(C)C)C(C)(C)C)C(=O)C(=O)NC1CC1 (stereo partly drawn) [Compound 13, 1-[2S-(3-tert-Butyl-ureido)-3,3-dimethyl-butyryl]-4R-(6-methoxy-isoquinolin-1-yloxy)-pyrrolidine-2S-carboxylic acid (1S-cyclopropylaminooxalyl-pentyl)-amide] | < 10 µM |
| CCOc1ccc2c(OC3C[C@@H](C(=O)N[C@@H](CC4CC4)C(=O)C(=O)NC4CC4)N(C(=O)[C@@H](NC(=O)NC(C)(C)C)C(C)(C)C)C3)nccc2c1 (stereo partly drawn) [Compound 11, 1-[2S-(3-tert-Butyl-ureido)-3,3-dimethyl-butyryl]-4R-(6-ethoxy-isoquinolin-1-yloxy)-pyrrolidine-2-carboxylic acid (2-cyclopropylcarbamoyl-1S-cyclopropylmethyl-2S-oxo-ethyl)-amide] | < 10 µM |
| CCC[C@H](NC(=O)[C@@H]1C[C@@H](Oc2ccc(Cl)cn2)CN1C(=O)[C@@H](NC(=O)NC(C)(C)C)C(C)(C)C)C(=O)C(=O)NC1CC1 [Compound 8, 1-[2-(3-tert-butylureido)-3,3-dimethyl-butyryl]-4-(5-chloro-pyridin-2-yloxy)-pyrrolidine-2-carboxylic acid (1-cyclopropylaminooxalyl-butyl)-amide] | < 10 µM |
| COc1ccc2c(OC3C[C@@H](C(=O)N[C@@H](CC4CC4)C(=O)C(=O)NC4CC4)N(C(=O)[C@@H](NC(=O)NC(C)(C)C)C(C)(C)C)C3)nccc2c1 (stereo partly drawn) [Compound 10, 1-[2S-(3-tert-Butyl-ureido)-3,3-dimethyl-butyryl]-4R-(6-methoxy-isoquinolin-1-yloxy)-pyrrolidine-2S-carboxylic acid (2-cyclopropylcarbamoyl-1S-cyclopropylmethyl-2-oxo-ethyl)-amide] | < 10 µM |
